Measurements as given in the NIST ThermoML archive (doi:10.1016/j.jct.2015.02.006).
Numbers after ± are expanded uncertainties.

Settings: Liquid, Closed cell (Static) method

| Compound | vapor or sublimation pressure (303.15 K) | vapor or sublimation pressure (318.15 K) | vapor or sublimation pressure (333.15 K) |
| --- | --- | --- | --- |
| CCO [ethanol] | 10.42 ± 0.38 kPa | 23.02 ± 0.46 kPa | 46.63 ± 0.58 kPa |
| CC1CO1 (centres undefined) [methyloxirane] | 86.9 ± 1.2 kPa | 147.85 ± 1.9 kPa | 237.88 ± 2.8 kPa |
| CCCO [propan-1-ol] | 3.63 ± 0.31 kPa | 9.01 ± 0.34 kPa | 19.93 ± 0.39 kPa |
